Experimental findings from US8440711B2, “2-aryl-2-fluoropropanoic acids and derivatives and pharmaceutical compositions containing them” (Dompe Pha.r.ma S.p.A., priority 2006, dated 2013) are described below.

Data set [1] can be described thus: Pharmacokinetic profile after intravenous and oral administration. The format is in vivo. Conditions: male, rat, plasma; for bioavailability: po; for half-life: read-out: t½ (converted). The method, then:
The pharmacokinetic profile of the compounds of formula (I) was evaluated in male mice or rats after intravenous and oral administration. The pharmacokinetic analysis was performed using plasmatic concentrations of the compounds at different times. The data were evaluated by Kinetica 2000™, Version 3.0 Software [InnaPhase Corporation, World headquarters, 1700 Race Street, Philadelphia, Pa. 19103 USA]. The pharmacokinetic parameters were calculated according the following formulas: Kel=elimination rate constant; t1/2=In2/Kel, AUC=AUC0n+AUCextra, where AUC0n=AUC from t=0 to t last (Trapezoidal Method) and AUCextra=extrapolated AUC=Clast/Kel; Clearance=D/AUC; Vd=Cl/Kel; Oral bioavailability F=(AUCp.o./AUCi.v.)*(Di.v./Dp.o.)*100.

Data set [2] is described as follows: Protein binding in rat plasma (ultrafiltration). The format is in vitro ADME. Conditions: 37° C. The method, then: (§1) Protein Binding was determined as follows: Duplicate rat plasma samples of each compound at 50 μg/mL concentration were incubated at 37° C. for 20 minutes under gentle shaking. Then samples were ultrafiltrated through Centrifree® micropartition devices by centrifugation at 1500 g for 15 minutes. The ultrafiltrate was subjected to HPLC-MS/MS quantitative analysis (Column Luna C18, 150×2 mm ID 5 μm (Phenomenex), mobile phase: eluent A) 0.02M HCOO—NH4+ (pH 4.3 with HCOOH); eluent B) CH3OH).

For data set [3], the system named is GRO-α induced chemotaxis of polymorphonucleate leukocytes (PMNs). The experiment in a line: GRO-α induced chemotaxis of human PMNs. The format is cell-based. Particulars: Leukocyte; for inhibition at 0.01 µM: 10^−8 M. The method, then:
(§2) The compounds of the invention of formula (I) were evaluated in vitro for their ability to inhibit chemotaxis of polymorphonucleate leukocytes (hereinafter referred to as PMNs) and monocytes induced by the fractions of CXCL8 and GRO-α and C5a and compared to the corresponding non fluorinated parent compounds. For this purpose, in order to isolate the PMNs from heparinized human blood, taken from healthy adult volunteers, mononucleates were removed by means of sedimentation on dextran (according to the procedure disclosed by W. J. Ming et al., J. Immunol., 138, 1469, 1987) and red blood cells by a hypotonic solution. The cell vitality was calculated by exclusion with Trypan blue, whilst the ratio of the circulating polymorphonucleates was estimated on the cytocentrifugate after staining with Diff Quick.
GRO-α induced chemotaxis inhibition was evaluated in an analogous assay.
(§3) In the chemotaxis experiments, the PMNs were incubated with the compounds of the invention of formula (I) for 15′ at 37° C. in an atmosphere containing 5% CO2.
(§4) During the chemotaxis assay (W. Falket et al., J. Immunol. Methods, 33, 239, 1980) PVP-free filters with a porosity of 5 μm and microchambers suitable for replication were used.
(§5) The compounds of the invention in formula (I) were evaluated at a concentration ranging between 10^−6 and 10^−10 M; for this purpose they were added, at the same concentration, both to the lower pores and the upper pores of the microchamber. Evaluation of the ability of the compounds of the invention of formula (I) to inhibit the chemotaxis of human monocytes was carried out according to the method disclosed (Van Damme J. et al., Eur. J. Immunol., 19, 2367, 1989).

Data set [4] deals with CXCL8 induced chemotaxis of polymorphonucleate leukocytes (PMNs). Description: CXCL8 induced chemotaxis of human PMNs. It counts as cell-based. Conditions: Leukocyte; for inhibition at 0.001 µM: 10^−9 M. The method, then: as §2
In the CXCL8 induced chemotaxis assay human recombinant CXCL8 (Pepro Tech) was used as stimulating agents in the chemotaxis experiments: the lyophilized protein was dissolved in a volume of HBSS containing 0.2% bovin serum albumin (BSA) so thus to obtain a stock solution having a concentration of 10^−5 M to be diluted in HBSS to a concentration of 10^−9 M, for the chemotaxis assays.
as §3, §4, §5

The subject of data set [5] is C5a induced chemotaxis of polymorphonucleate leukocytes (PMNs). Description: C5a induced chemotaxis of human PMNs. The format is cell-based. Conditions: Leukocyte, 10^−8 M, Table 2. Here is the method:
as §2
In the C5a induced chemotaxis assay the fractions hr-C5a and hrC5a-desArg (Sigma) were used as stimulating agents in chemotaxis experiments, obtaining practically identical results. Lyophilized C5a was dissolved in a volume of HBSS containing 0.2% BSA so as to obtain a stock solution having a concentration of 10^−5 M, to be diluted in HBSS to a concentration of 10^−9 M, for the chemotaxis assays.
as §3
The chemotactic activity of the C5a was evaluated on human circulating polymorphonucleates (PMNs) resuspended in HBSS at a concentration of 1.5×10^6 PMNs per nil.
as §4, §5

Data set [6] in a line: Protein binding, experiments performed in mouse. The format is in vitro ADME. Conditions: plasma; values marked *: experiments performed in mouse. Here is the method: as §1
Where [7] appears, read: values marked *: 10^−7 M, Table 1, read-out: GRO-α (% of inhibition at 10^−7 M).
The mark [8] stands for this setting: Table 1, read-out: CXCL8 (% inhibition at 10^−9 M).

The structures appear in SMILES notation. Counter-ions that a name gives are not always drawn. Like-named read-outs stand apart in the source and are kept apart here.

Usually bioavailability stands for dose-corrected exposure relative to a reference, in per cent. Read a high bioavailability as good availability. As usually defined, the fraction unbound is the share of the substance not bound to proteins or other matrix. For `C[C@@H](C(N)=O)c1ccc(OS(=O)(=O)C(F)(F)F)cc1`, in data set [1], the Vd turned out to be 0.55 L/kg, the clearance was 3.67 mL/min/kg, the bioavailability was found to be 72% and the half-life was 1.9 h. For the same compound, the fraction unbound at 20 min, 50 μg/mL in data set [2] was 0.06.
With `CC(O)(C(N)=O)c1ccc(OS(=O)(=O)C(F)(F)F)cc1` (centres unmarked), in data set [1], the Vd turned out to be 1.33 L/kg, the clearance was 0.65 mL/min/kg, the bioavailability amounted to 85% and the half-life is 25 h. This compound had a fraction unbound at 20 min, 50 μg/mL in data set [2] of 0.2.
What is called melting point is the temperature of the solid-liquid transition. In turn, `CC(F)(C(N)=O)c1ccc(OS(=O)(=O)C(F)(F)F)cc1` (centres unmarked) (as salt: methanesulfonate) [Compound 8, 4-(2-amino-1-fluoro-1-methyl-2-oxoethyl)phenyl trifluoromethanesulfonate] displayed a melting point of 85 to 87 °C.
Usually inhibition stands for the change of the read-out against control, counted positive when it falls. In the case of `CC(F)(C(=O)O)c1ccc(OS(=O)(=O)C(F)(F)F)cc1` (centres unmarked) [Compound 1, 2-Fluoro-2-(4-{[(trifluoromethyl)sulfonyl]oxy}phenyl) propanoic acid], the inhibition at 0.1 µM in data set [3] (setting [7]) amounted to 47 ± 10%.
`C[C@@](F)(C(=O)O)c1ccc(OS(=O)(=O)C(F)(F)F)cc1` [Compound 2, (2S)-2-fluoro-2-(4-{[(trifluoromethyl)sulfonyl]oxy}phenyl)propanoic acid]: the melting point lay within 91 to 94 °C. The inhibition at 0.1 µM in data set [3] (setting [7]) stood at 43 ± 15%.
For `C[C@](F)(C(=O)O)c1ccc(OS(=O)(=O)C(F)(F)F)cc1` [Compound 3, (2R)-2-fluoro-2-(4-{[(trifluoromethyl)sulfonyl]oxy}phenyl)propanoic acid], in that order: 90 to 94 °C and 49 ± 6%.
Regarding `C[C@@](F)(C(=O)NO)c1ccc(OS(=O)(=O)C(F)(F)F)cc1` [Compound 4, 4-[(1S)-1-fluoro-2-(hydroxyamino)-1-methyl-2-oxoethyl}phenyl trifluoromethanesulfonate], testing at 0.01 µM in data set [3] (Table 1) gave an inhibition of 55 ± 10%.
`CN(O)C(=O)[C@@](C)(F)c1ccc(OS(=O)(=O)C(F)(F)F)cc1` [Compound 5, 4-[(1S)-1-fluoro-2-[hydroxyl(methyl)amino]-1-methyl-2-oxoethyl}phenyl trifluoromethane sulfonate] showed an inhibition at 0.01 µM in data set [3] (Table 1) of 40 ± 8%.
In turn, `CC(F)(C(=O)O)c1cccc(C(=O)c2ccccc2)c1` (centres unmarked) [Compound 6, 2-(3-benzoylphenyl)-2-fluoropropanoic acid] showed an inhibition at 0.01 µM in data set [3] (Table 1) of 42 ± 4%.
For the compound `CC(F)(C(=O)O)c1cccc(Nc2nc(C(F)(F)F)cs2)c1` (centres unmarked) [Compound 7], the inhibition at 0.001 µM in data set [4] (setting [8]) was 21 ± 6%. Further, in data set [3] (Table 1), 0.01 µM produced 60 ± 10% inhibition.
For `CC(F)(C(N)=O)c1ccc(OS(=O)(=O)C(F)(F)F)cc1` (centres unmarked) [Compound 8, 4-(2-amino-1-fluoro-1-methyl-2-oxoethyl)phenyl trifluoromethanesulfonate], in that order: 50 ± 9% and 57 ± 12%.
As for `C[C@](F)(C(N)=O)c1ccc(OS(=O)(=O)C(F)(F)F)cc1` [Compound 9, 4-[(1R)-2-amino-1-fluoro-1-methyl-2-oxoethyl)phenyl trifluoromethanesulfonate], testing at 0.01 µM in data set [3] (Table 1) gave an inhibition of 53 ± 9%.
Consider `C[C@@](F)(C(N)=O)c1ccc(OS(=O)(=O)C(F)(F)F)cc1` [Compound 10, 4-[(1S)-2-amino-1-fluoro-1-methyl-2-oxoethyl)phenyl trifluoromethanesulfonate], for which the inhibition at 0.001 µM in data set [4] (setting [8]) was 50 ± 6%. The compound further yielded an inhibition at 0.01 µM in data set [3] (Table 1) of 10 ± 12%.
For `CONC(=O)C(C)(F)c1ccc(OS(=O)(=O)C(F)(F)F)cc1` (centres unmarked) [Compound 11, 4-[1-fluoro-2-(methoxyamino)-1-methyl-2-oxoethyl]phenyl trifluoromethanesulfonate], the inhibition at 0.1 µM in data set [4] (values marked *: 10^−7 M, Table 1, read-out: CXCL8 (% of inhibition at 10^−7 M)) stood at 40 ± 10%. The compound further gave an inhibition at 0.01 µM in data set [3] (Table 1) of 7 ± 8%.
For `CC(C)NC(=O)C(C)(F)c1ccc(OS(=O)(=O)C(F)(F)F)cc1` (centres unmarked) [Compound 12, 4-[1-fluoro-2-(isopropylamino)-1-methyl-2-oxoethyl]phenyl trifluoromethanesulfonate], the inhibition at 0.1 µM in data set [3] (setting [7]) stood at 45 ± 8%.
As for `CC(F)(C(N)=O)c1cccc(C(=O)c2ccccc2)c1` (centres unmarked) [Compound 13, 2-(3-benzoylphenyl)-2-fluoropropanamide], in data set [5], the inhibition at 0.01 µM was 47 ± 9%. For the same compound, the inhibition at 0.1 µM stood at 52 ± 8% in data set [4] (marked *, no footnote in Table 2 (Table 1: * = 10^−7 M), read-out: CSCL8 (% inhibition), value marked *) and 50 ± 12% in data set [3] (marked *, no footnote in Table 2 (Table 1: * = 10^−7 M), read-out: GRO-α (% inhibition), value marked *).
For the compound `CC(F)(C(N)=O)c1cccc(Nc2nc(C(F)(F)F)cs2)c1` (centres unmarked) [Compound 14, 2-fluoro-2-(3-{[4-(trifluoromethyl)-1,3-thiazol-2-yl]amino}phenyl)propanamide], the inhibition at 0.01 µM is 33 ± 5% in data set [5] and 55 ± 7% in data set [3] (Table 2). For the same compound, the inhibition at 0.001 µM in data set [4] (Table 2, read-out: CSCL8 (% inhibition at 10^−9 M)) came to 36 ± 12%.
In the case of `C[C@H](NC(=O)[C@](C)(F)c1ccc(OS(=O)(=O)C(F)(F)F)cc1)C(=O)O` [Compound 15, (2S)-2-{[(2R)-2-fluoro-2-(4-{[(trifluoromethyl)sulfonyl]oxy}phenyl)propanoyl]amino}propanoic acid], in data set [4] (setting [8]), the inhibition at 0.001 µM amounted to 55 ± 8%.
Still for that read-out and setting: the value for `C[C@H](NC(=O)C(C)(F)c1cccc(Nc2nc(C(F)(F)F)cs2)c1)C(=O)O` (stereo partly drawn) [Compound 16, (2S)-2-{[2-fluoro-2-(3-{[4-(trifluoromethyl)-1,3-thiazol-2-yl]amino}phenyl)propanoyl]amino}propanoic acid] was 50 ± 12%.
In the case of `C[C@](F)(C(=O)NS(C)(=O)=O)c1ccc(OS(=O)(=O)C(F)(F)F)cc1` [Compound 17, 4-{(1R)-1-fluoro-1-methyl-2-[(methylsulfonyl)amino]-2-oxoethyl}phenyl trifluoromethanesulfonate], the inhibition at 0.01 µM in data set [3] (Table 1) was 57 ± 14%.
Regarding `C[C@@](F)(C(=O)NCCCN1CCCC1)c1ccc(OS(=O)(=O)C(F)(F)F)cc1` [Compound 18], at 0.01 µM the inhibition in data set [5] was 53 ± 5%.
Still for that read-out and setting: the figure for `C[C@](F)(C(=O)NC[C@H]1CCCN1)c1ccc(OS(=O)(=O)C(F)(F)F)cc1` [Compound 19, 4-((1R)-1-fluoro-1-methyl-2-oxo-2-{[(2R)-pyrrolidin-2-ylmethyl]amino}ethyl)phenyl trifluoromethanesulfonate] is 45 ± 4%.
`C[C@](F)(C(N)=O)c1ccc(OS(=O)(=O)C(F)(F)F)cc1` [drawing 24]: in data set [1], the Vd was found to be 0.631 L/kg, the clearance is 0.53 mL/min/kg, the bioavailability was 46.8% and the half-life is 13.8 h. This compound also had a free fraction (fraction unbound) at 20 min, 50 μg/mL in data set [6] of 0.05.
On to `C[C@@](F)(C(N)=O)c1ccc(OS(=O)(=O)C(F)(F)F)cc1` [drawing 25], for which, in data set [1], the Vd amounted to 1.47 L/kg, the clearance is 2.28 mL/min/kg, the bioavailability was 84.2% and the half-life was 9.1 h. Also, the unbound share (fraction unbound) at 20 min, 50 μg/mL in data set [6] is 0.08.
